The text below walks through data of ChEMBL document CHEMBL4800731, “Data for DCP probe JNJ-65355394” (2021).

Test [1] addresses Alpha-1A adrenergic receptor (Rattus norvegicus) (UniProt P43140). In words: rAa1 Cerep panel.
The target of test [2] is Alpha-2A adrenergic receptor (Rattus norvegicus) (UniProt P22909). In words: rAa2 Cerep panel.
The target in test [3] is Endothelin-1 receptor (Homo sapiens) (UniProt P25101). Kind of test: hETA Cerep panel.
For test [4], the target named is Mu-type opioid receptor (Homo sapiens) (UniProt P35372). Kind of test: hOP3 Cerep panel.
Sequence of Mu-type opioid receptor (Homo sapiens) (P35372 whole entry): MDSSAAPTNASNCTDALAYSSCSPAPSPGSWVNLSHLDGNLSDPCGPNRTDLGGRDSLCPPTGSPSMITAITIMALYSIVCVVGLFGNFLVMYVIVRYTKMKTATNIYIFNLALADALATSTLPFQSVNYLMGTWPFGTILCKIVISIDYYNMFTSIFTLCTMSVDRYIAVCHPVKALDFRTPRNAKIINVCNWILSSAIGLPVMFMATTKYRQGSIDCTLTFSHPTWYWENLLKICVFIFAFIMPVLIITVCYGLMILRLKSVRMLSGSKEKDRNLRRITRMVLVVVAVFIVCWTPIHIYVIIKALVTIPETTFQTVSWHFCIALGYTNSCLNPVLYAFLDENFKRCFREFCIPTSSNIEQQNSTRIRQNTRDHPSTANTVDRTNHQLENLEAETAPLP
The target of test [5] is 5-hydroxytryptamine receptor 2B (Homo sapiens) (UniProt P41595). In words: h5HT2B Cerep panel.
Sequence of 5-hydroxytryptamine receptor 2B (Homo sapiens) (P41595 whole entry): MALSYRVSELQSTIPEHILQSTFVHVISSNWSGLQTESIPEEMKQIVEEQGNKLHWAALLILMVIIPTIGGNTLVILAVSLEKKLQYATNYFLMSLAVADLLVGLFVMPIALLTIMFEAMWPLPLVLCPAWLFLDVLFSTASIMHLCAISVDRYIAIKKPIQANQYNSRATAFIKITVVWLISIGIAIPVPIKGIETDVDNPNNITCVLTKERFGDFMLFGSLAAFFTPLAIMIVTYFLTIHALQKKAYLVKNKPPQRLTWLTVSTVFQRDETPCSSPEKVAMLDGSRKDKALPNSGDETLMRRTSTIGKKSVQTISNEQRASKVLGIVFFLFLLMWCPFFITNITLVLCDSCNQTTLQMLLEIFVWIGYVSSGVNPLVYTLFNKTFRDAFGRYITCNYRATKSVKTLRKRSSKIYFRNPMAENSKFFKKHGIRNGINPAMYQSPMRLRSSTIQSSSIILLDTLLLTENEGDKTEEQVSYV
Test [6] concerns the target Alpha-2B adrenergic receptor (Homo sapiens, UniProt P18089). Kind of test: GPCRScan assay: inhibition of Alpha2B. Also noted: radioligand conc. used [nm] 1.5 – 2.0, parental cells HEKT.

Sequence of Alpha-2B adrenergic receptor (P18089 whole entry): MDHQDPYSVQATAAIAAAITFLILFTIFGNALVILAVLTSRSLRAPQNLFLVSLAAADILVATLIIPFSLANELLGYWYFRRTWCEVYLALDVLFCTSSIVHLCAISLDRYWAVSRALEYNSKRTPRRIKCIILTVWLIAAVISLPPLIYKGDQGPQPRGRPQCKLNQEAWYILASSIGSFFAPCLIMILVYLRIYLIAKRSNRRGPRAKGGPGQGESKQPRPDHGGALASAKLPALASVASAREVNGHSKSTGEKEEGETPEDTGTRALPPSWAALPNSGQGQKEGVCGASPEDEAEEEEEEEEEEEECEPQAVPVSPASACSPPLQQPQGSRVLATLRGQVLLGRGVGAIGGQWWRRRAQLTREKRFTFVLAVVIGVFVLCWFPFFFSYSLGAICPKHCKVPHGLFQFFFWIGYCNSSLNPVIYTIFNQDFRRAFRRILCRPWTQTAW
Sequence of Alpha-1A adrenergic receptor (Rattus norvegicus) (P43140 whole entry): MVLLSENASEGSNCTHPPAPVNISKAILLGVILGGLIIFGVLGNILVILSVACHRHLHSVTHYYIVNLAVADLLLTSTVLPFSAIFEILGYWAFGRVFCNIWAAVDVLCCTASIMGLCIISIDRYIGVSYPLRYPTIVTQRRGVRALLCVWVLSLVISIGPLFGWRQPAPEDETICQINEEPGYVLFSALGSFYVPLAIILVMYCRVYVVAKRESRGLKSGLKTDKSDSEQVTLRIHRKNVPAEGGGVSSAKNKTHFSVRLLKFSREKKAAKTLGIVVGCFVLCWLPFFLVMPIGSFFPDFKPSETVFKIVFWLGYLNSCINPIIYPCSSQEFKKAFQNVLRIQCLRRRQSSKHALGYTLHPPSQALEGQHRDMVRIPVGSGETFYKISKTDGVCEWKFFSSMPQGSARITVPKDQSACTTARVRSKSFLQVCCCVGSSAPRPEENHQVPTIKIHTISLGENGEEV
Sequence of Alpha-2A adrenergic receptor (Rattus norvegicus) (P22909 whole entry): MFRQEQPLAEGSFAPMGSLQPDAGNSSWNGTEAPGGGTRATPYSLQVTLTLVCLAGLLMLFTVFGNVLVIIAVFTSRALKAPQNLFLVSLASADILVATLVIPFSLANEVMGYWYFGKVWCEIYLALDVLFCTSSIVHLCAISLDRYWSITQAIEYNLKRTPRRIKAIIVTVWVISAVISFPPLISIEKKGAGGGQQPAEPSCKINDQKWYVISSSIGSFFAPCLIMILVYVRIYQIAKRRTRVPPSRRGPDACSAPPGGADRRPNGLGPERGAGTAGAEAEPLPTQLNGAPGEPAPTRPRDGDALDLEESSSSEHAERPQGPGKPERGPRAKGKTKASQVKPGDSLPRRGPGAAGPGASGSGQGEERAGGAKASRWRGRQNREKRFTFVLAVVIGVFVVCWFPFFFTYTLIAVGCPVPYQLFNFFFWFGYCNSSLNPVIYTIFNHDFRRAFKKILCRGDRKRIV
Sequence of Endothelin-1 receptor (Homo sapiens) (P25101 whole entry): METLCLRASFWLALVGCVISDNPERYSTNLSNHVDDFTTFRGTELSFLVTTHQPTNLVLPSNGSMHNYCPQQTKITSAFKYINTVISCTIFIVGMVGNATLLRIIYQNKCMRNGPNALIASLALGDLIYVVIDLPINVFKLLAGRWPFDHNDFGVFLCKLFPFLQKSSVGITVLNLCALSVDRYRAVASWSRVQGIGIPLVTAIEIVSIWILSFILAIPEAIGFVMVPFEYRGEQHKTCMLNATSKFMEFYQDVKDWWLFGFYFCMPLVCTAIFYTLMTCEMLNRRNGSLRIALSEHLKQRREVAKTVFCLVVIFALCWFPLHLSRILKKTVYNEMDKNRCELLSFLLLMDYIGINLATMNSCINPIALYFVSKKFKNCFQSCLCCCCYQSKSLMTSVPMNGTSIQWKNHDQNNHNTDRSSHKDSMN

As for `CC(=O)Nc1ncc(CN2CCC[C@H](Cc3cc(C)nc(C)c3)C2)s1` [JNJ-65355394], the effect in test [1] is 19.5%; in test [2], 69%; in test [3], 3.6%; in test [4], 55.4%; in test [5] it was 6.3%.
In the case of `CC(=O)Nc1nc(CN2CCC[C@H](Cc3cc(C)nc(C)c3)C2)cs1` [JNJ-73924149], the values for the Ki in test [6] (read-out: Ki) and in test [6] (read-out: pKi (converted)) were 3.69 µM and 3.67 µM, respectively.
